Results taken from article PMC4877593, “Design and Synthesis of Potent in Vitro and in Vivo Anticancer Agents Based on 1-(3′,4′,5′-Trimethoxyphenyl)-2-Aryl-1H-Imidazole” (Scientific Reports, 2016).
Like-named read-outs stand apart in the source and are kept apart here.

Experiments:
HeLa = assay: In vitro antiproliferative activity (MTT), HeLa; format: cell-based; conditions: Homo sapiens, tumor cell proliferation, 72 h, mean ± SE
Experimental: (§1) Human T-cell leukemia (CCRF-CEM and Jurkat) and human B-cell leukemia (SEM) cells were grown in RPMI-1640 medium (Gibco, Milano, Italy). Breast adenocarcinoma (MCF7), human cervix carcinoma (HeLa), and human colon adenocarcinoma (HT-29) cells were grown in DMEM medium (Gibco, Milano, Italy), all supplemented with 115 units/mL penicillin G (Gibco, Milano, Italy), 115 μg/mL streptomycin (Invitrogen, Milano, Italy), and 10% fetal bovine serum (Invitrogen, Milano, Italy). Stock solutions (10 mM) of the different compounds were obtained by dissolving them in dimethyl sulfoxide (DMSO). Individual wells of a 96-well tissue culture microtiter plate were inoculated with 100 μL of complete medium containing 8 × 10^3 cells. The plates were incubated at 37 °C in a humidified 5% CO2 incubator for 18 h prior to the experiments. After medium removal, 100 μL of fresh medium containing the test compound at different concentrations was added to each well in triplicate and incubated at 37 °C for 72 h. The percentage of DMSO in the medium never exceeded 0.25%. This was also the maximum DMSO concentration in all cell-based assays described below. […] Different concentrations of the test compounds were added, and viability was determined 72 h later by the MTT test. For cytotoxicity evaluations in resting PBL cultures, non-adherent cells were resuspended (5 × 10^5 cells/mL) and treated for 72 h with the test compounds, as described above.

HT-29 = assay: In vitro antiproliferative activity (MTT), HT-29; format: cell-based; conditions: Homo sapiens, tumor cell proliferation, 72 h, mean ± SE
Experimental: as §1

A549 = assay: In vitro antiproliferative activity (MTT), A549; format: cell-based; conditions: Homo sapiens, tumor cell proliferation, 72 h, mean ± SE
Experimental: as §1

MCF-7 = assay: In vitro antiproliferative activity (MTT), MCF-7; format: cell-based; conditions: Homo sapiens, MCF7, tumor cell proliferation, 72 h, mean ± SE
Experimental: as §1

Jurkat = assay: In vitro antiproliferative activity (MTT), Jurkat; format: cell-based; conditions: Homo sapiens, tumor cell proliferation, 72 h, mean ± SE
Experimental: as §1

RS4;11 = assay: In vitro antiproliferative activity (MTT), RS4;11; format: cell-based; conditions: Homo sapiens, tumor cell proliferation, 72 h, mean ± SE
HL-60 = assay: In vitro antiproliferative activity (MTT), HL-60; format: cell-based; conditions: Homo sapiens, tumor cell proliferation, 72 h, mean ± SE
[1] = system: panel of seven human tumor cell lines; assay: Antiproliferative activity across the panel of seven human tumor cell lines; format: cell-based
Experimental: as §1

bovine brain tubulin = assay: Inhibition of tubulin polymerization (turbidimetry); format: biochemical
Experimental: To evaluate the effect of the compounds on tubulin assembly in vitro[22], varying concentrations of compounds were preincubated with 10 μM bovine brain tubulin in glutamate buffer at 30 °C and then cooled to 0 °C. After addition of 0.4 mM GTP (final concentration), the mixtures were transferred to 0 °C cuvettes in a recording spectrophotometer equipped with an electronic temperature controller and warmed to 30 °C. Tubulin assembly was followed turbidimetrically at 350 nm. […] The ability of the test compounds to inhibit colchicine binding to tubulin was measured as described, except that the reaction mixtures contained 1 μM tubulin, 5 μM [^3H]colchicine and 1 or 5 μM test compound.

[2] = average over the seven cell lines, read-out: average IC50 values
[3] = tubulin at 10 μM, 20 min incubation, read-out: Tubulin assembly IC50 ± S.D.
[4] = repeated beside the calculated energies, read-out: inhibition of tubulin polymerization IC50 (Table 4)

Compound | IC50 (HeLa) | IC50 (HT-29) | IC50 (A549) | IC50 (MCF-7) | IC50 (Jurkat) | IC50 (RS4;11) | IC50 (HL-60) | melting point | IC50 [1, 2] | IC50 (bovine brain tubulin; [3]) | IC50 ([1]; range over seven cancer cell lines, read-out: IC50 values in the seven cell lines (range)) | IC50 (bovine brain tubulin; [4])
CCOc1ccccc1-c1nccn1-c1cc(OC)c(OC)c(OC)c1 [Compound 4m, 2-(2′-Ethoxyphenyl)-1-(3′,4′,5′-trimethoxyphenyl)-1H-imidazole] | > 10000 nM | > 10000 nM | > 10000 nM | > 10000 nM | > 10000 nM | > 10000 nM | > 10000 nM | 130 to 132 °C | – | – | – | –
COc1cc(-c2nccn2-c2cc(OC)c(OC)c(OC)c2)ccc1C [Compound 4g, 2-(4′-Methyl-3′-methoxyphenyl)-1-(3′,4′,5′-trimethoxyphenyl)-1H-imidazole] | 623 ± 98 nM | > 10000 nM | > 10000 nM | > 10000 nM | 4930 ± 536 nM | 2570 ± 784 nM | > 10000 nM | – | – | – | – | –
COc1cc(-n2ccnc2-c2ccc(OC(F)(F)F)cc2)cc(OC)c1OC [Compound 4j, 1-(3′,4′,5′-Trimethoxyphenyl)-2-(4′-(trifluoromethoxy)phenyl)-1H-imidazole] | > 10000 nM | > 10000 nM | > 10000 nM | > 10000 nM | 6630 ± 338 nM | > 10000 nM | > 10000 nM | 125 to 127 °C | – | – | – | –
COc1ccc(-c2nccn2-c2cc(OC)c(OC)c(OC)c2)cc1C [Compound 4f, 2-(4′-Methoxy-3′-methylphenyl)-1-(3′,4′,5′-trimethoxyphenyl)-1H-imidazole] | 330 ± 25 nM | 377 ± 33 nM | 4720 ± 509 nM | 509 ± 25 nM | 136 ± 38 nM | 475 ± 106 nM | 413 ± 27 nM | 128 to 130 °C | – | – | – | –
COc1ccc(-c2nccn2-c2cc(OC)c(OC)c(OC)c2)cc1Cl [Compound 4e, 2-(3′-Chloro-4′-methoxyphenyl)-1-(3′,4′,5′-trimethoxyphenyl)-1H-imidazole] | 263 ± 39 nM | 647 ± 83 nM | 2600 ± 422 nM | 666 ± 231 nM | 365 ± 25 nM | 715 ± 148 nM | 453 ± 14 nM | 176 to 178 °C | – | – | – | –
COc1ccc(-c2nccn2-c2cc(OC)c(OC)c(OC)c2)cc1OC [Compound 4i, 1-(3′,4′,5′-Trimethoxyphenyl)-2-(3′,4′-dimethoxyphenyl)-1H-imidazole] | > 10000 nM | > 10000 nM | > 10000 nM | > 10000 nM | > 10000 nM | > 10000 nM | 3930 ± 517 nM | – | – | – | – | –
COc1cc(-n2ccnc2-c2ccc(C)cc2)cc(OC)c1OC [Compound 4a, 1-(3′,4′,5′-Trimethoxyphenyl)-2-p-tolyl-1H-imidazole] | 1260 ± 172 nM | 1920 ± 354 nM | 4730 ± 328 nM | 2800 ± 721 nM | 760 ± 136 nM | > 10000 nM | 2100 ± 252 nM | 142 to 144 °C | – | – | – | –
COc1ccc(/C=C\c2cc(OC)c(OC)c(OC)c2)cc1O [CA-4, Combretastatin A-4, reference compound] | 4 ± 1 nM | 180 ± 30 nM | 3100 ± 100 nM | 5 ± 0.6 nM | 0.8 ± 0.2 nM | 370 ± 100 nM | 1 ± 0.2 nM | – | 523 nM | […] | – | –
COc1ccc(-c2nccn2-c2cc(OC)c(OC)c(OC)c2)cc1F [Compound 4d, 2-(3′-Fluoro-4′-methoxyphenyl)-1-(3′,4′,5′-trimethoxyphenyl)-1H-imidazole] | 51 ± 6.5 nM | 112 ± 15 nM | 121 ± 56 nM | 74 ± 17 nM | 90 ± 23 nM | 217 ± 46 nM | 29 ± 9.5 nM | – | – | – | – | –
CCOc1ccc(-c2nccn2-c2cc(OC)c(OC)c(OC)c2)cc1 [Compound 4k, 2-(4′-Ethoxyphenyl)-1-(3′,4′,5′-trimethoxyphenyl)-1H-imidazole] | 3.7 ± 0.12 nM | 1.8 ± 0.8 nM | 1.9 ± 1 nM | 1.5 ± 0.2 nM | 1.2 ± 0.5 nM | 34.7 nM | 4.8 ± 1.9 nM | 132 to 134 °C | 7.1 nM | 630 nM | 1.8 to 34.7 nM | 630 nM
COc1cc(-n2ccnc2-c2ccc(SC)cc2)cc(OC)c1OC [Compound 4c, 1-(3′,4′,5′-Trimethoxyphenyl)-2-(4′-(methylthio)phenyl)-1H-imidazole] | 337 ± 48 nM | 330 ± 36 nM | 5600 ± 352 nM | 1360 ± 350 nM | 407 ± 24 nM | 800 ± 58 nM | 333 ± 41 nM | 158 to 160 °C | – | – | – | –
CCCOc1ccc(-c2nccn2-c2cc(OC)c(OC)c(OC)c2)cc1 [Compound 4q, 1-(3′,4′,5′-Trimethoxyphenyl)-2-(4′-n-propoxyphenyl)-1H-imidazole] | 2.9 ± 0.8 nM | 15 ± 1.3 nM | 63 ± 18.1 nM | 1.7 ± 0.6 nM | 42 ± 3.9 nM | 91 ± 8.9 nM | 63 ± 17.6 nM | – | – | 1400 ± 100 nM | – | 1400 nM
COc1cc(-n2ccnc2-c2cc(C)c(OC)c(C)c2)cc(OC)c1OC [Compound 4h, 2-(4′-Methoxy-3′,5′-dimethylphenyl)-1-(3′,4′,5′-trimethoxyphenyl)-1H-imidazole] | 9160 ± 1590 nM | > 10000 nM | > 10000 nM | > 10000 nM | > 10000 nM | > 10000 nM | 3470 ± 467 nM | 153 to 155 °C | – | – | – | –
CCOc1cccc(-c2nccn2-c2cc(OC)c(OC)c(OC)c2)c1 [Compound 4l, 2-(3′-Ethoxyphenyl)-1-(3′,4′,5′-trimethoxyphenyl)-1H-imidazole] | > 10000 nM | > 10000 nM | > 10000 nM | > 10000 nM | > 10000 nM | > 10000 nM | > 10000 nM | 121 to 122 °C | – | – | – | –
CCc1ccc(-c2nccn2-c2cc(OC)c(OC)c(OC)c2)cc1 [Compound 4b, 2-(4′-Ethylphenyl)-1-(3′,4′,5′-trimethoxyphenyl)-1H-imidazole] | 1980 ± 126 nM | 1400 ± 200 nM | 7000 ± 1150 nM | 2090 ± 374 nM | 4570 ± 758 nM | 5680 ± 259 nM | 4800 ± 451 nM | 130 to 132 °C | – | – | – | –
CCSc1ccc(-c2nccn2-c2cc(OC)c(OC)c(OC)c2)cc1 [Compound 4p, 2-(4′-(Ethylthio)phenyl)-1-(3′,4′,5′-trimethoxyphenyl)-1H-imidazole] | 48 ± 2.5 nM | 174 ± 16 nM | 228 ± 81 nM | 69 ± 7 nM | 127 ± 27 nM | 85 ± 20 nM | 12 ± 2.5 nM | 143 to 145 °C | – | – | – | –
